Laboratory results from patent US9512075B2 (OKAYAMA UNIVERSITY, priority 2012, dated 2016).
Converted amounts (≈) assume the structure as drawn. Where two headings read alike, the source gives them in different places.

What was measured:
Format in all cases: cell-based
[1] = system: Clostridium perfringens PB6K strain; test: microbe, parasite or virus in culture; conditions: CD medium, 37° C. overnight, 10% CO2-containing anaerobic conditions; for MIC: Clostridium perfringens, PB6KSTRAIN, read-out: MIC Clostridium perfringens PB6K, PB6K strain
[2] = system: Escherichia coli BE1121 strain; test: MIC for Escherichia coli BE1121 strain; conditions: for MIC: Escherichia coli, BE1121STRAIN, read-out: MIC Escherichia coli BE1121
[3] = system: Enterococcus faecalis NCTC12201 strain (vancomycin-resistant Enterococcus: VRE); test: MIC for Enterococcus faecalis NCTC12201 strain (VRE); conditions: read-out: MIC Enterococcus faecalis NCTC 12201 (VRE)
[4] = system: Staphylococcus aureus Smith strain; test: MIC for Staphylococcus aureus Smith strain; conditions: read-out: MIC Straphyrococcus aureus Smith
[5] = system: Escherichia coli K-12 strain; test: MIC for Escherichia coli K-12 strain; conditions: for MIC: Escherichia coli, K12STRAIN, read-out: MIC Escherichia coli K12
[6] = system: Clostridium difficile JCM1296 strain; test: microbe, parasite or virus in culture; conditions: for MIC: Clostridioides difficile, JCM1296, read-out: MIC Clostridium difficile JCM1296
[7] = system: Staphylococcus aureus 209P strain; test: MIC for Staphylococcus aureus 209P strain; conditions: for MIC: Staphylococcus aureus, read-out: MIC Straphyrococcus aureus 209P
[8] = system: Staphylococcus aureus MRSA No. 17 (methicillin-resistant Staphylococcus aureus: MRSA); test: MIC for Staphylococcus aureus MRSA No. 17; conditions: read-out: MIC Straphyrococcus aureus MRSA No. 17 (MRSA)
[9] = system: Enterococcus faecalis 5038 strain; test: MIC for Enterococcus faecalis 5038 strain; conditions: read-out: MIC Enterococcus faecalis 5038
[10] = BE1121 strain, regular bouillon medium, 37° C. overnight, turbidity
[11] = NCTC12201 strain (VRE), Heart Infusion Broth medium, 37° C. overnight, turbidity
[12] = Smith strain, regular bouillon medium, 37° C. overnight, turbidity
[13] = K-12 strain, regular bouillon medium, 37° C. overnight, turbidity
[14] = 209P strain, regular bouillon medium, 37° C. overnight, turbidity
[15] = MRSA No. 17, regular bouillon medium, 37° C. overnight, turbidity
[16] = 5038 strain, Heart Infusion Broth medium, 37° C. overnight, turbidity

| SMILES | MIC [1] | MIC [2, 10] | MIC [3, 11] | MIC [4, 12] | MIC [5, 13] | MIC [6] | MIC [7, 14] | MIC [8, 15] | MIC [9, 16] | also measured |
| --- | --- | --- | --- | --- | --- | --- | --- | --- | --- | --- |
| CCCCC1CCC(C(O)=C2C(=O)N(C(=O)Nc3ccc(F)cc3)c3ccccc32)CC1 (centres unmarked) [A043, N-(4-fluorophenylaminocarbonyl)-3-(4-butylcyclohexylcarbonyl)-2-oxyindole] | 4 µg/mL (≈ 9.16 µM) | 256 µg/mL (≈ 586 µM) | 1 µg/mL (≈ 2.29 µM) | 1 µg/mL (≈ 2.29 µM) | 256 µg/mL (≈ 586 µM) | 1 µg/mL (≈ 2.29 µM) | 256 µg/mL (≈ 586 µM) | 128 µg/mL (≈ 293 µM) | 1 µg/mL (≈ 2.29 µM) | – |
| CCCCCCCCCCOCC(O)=C1C(=O)N(C(=O)Nc2ccccc2)c2ccc(F)cc21 [A036] | 0.25 µg/mL (≈ 0.534 µM) | 128 µg/mL (≈ 273 µM) | 0.5 µg/mL (≈ 1.07 µM) | 0.25 µg/mL (≈ 0.534 µM) | 128 µg/mL (≈ 273 µM) | 0.25 µg/mL (≈ 0.534 µM) | 128 µg/mL (≈ 273 µM) | 128 µg/mL (≈ 273 µM) | 0.5 µg/mL (≈ 1.07 µM) | – |
| CCCCCCCCCC(O)=C1C(=O)N(C(=O)Nc2ccccc2)c2ccc(Br)cc21 [A033, N-(phenylaminocarbonyl)-5-bromo-3-decanoyl-2-oxyindole] | 0.5 µg/mL (≈ 1.03 µM) | 128 µg/mL (≈ 264 µM) | 256 µg/mL (≈ 527 µM) | 256 µg/mL (≈ 527 µM) | 256 µg/mL (≈ 527 µM) | 0.5 µg/mL (≈ 1.03 µM) | 256 µg/mL (≈ 527 µM) | 256 µg/mL (≈ 527 µM) | 256 µg/mL (≈ 527 µM) | – |
| CCCCCCCCCC(O)=C1C(=O)N(C(=O)OC(C)(C)C)c2cc(Cl)ccc21 [A003, N-Boc-3-decanoyl-6-chloro-2-oxyindole] | 1 µg/mL (≈ 2.37 µM) | 128 µg/mL (≈ 303 µM) | 128 µg/mL (≈ 303 µM) | 256 µg/mL (≈ 607 µM) | 256 µg/mL (≈ 607 µM) | 0.5 µg/mL (≈ 1.18 µM) | 256 µg/mL (≈ 607 µM) | 256 µg/mL (≈ 607 µM) | 128 µg/mL (≈ 303 µM) | – |
| CCCCC1CCC(C(O)=C2C(=O)N(C(C)=O)c3ccccc32)CC1 (centres unmarked) [A010, N-acetyl-3-(4-butylcyclohexylcarbonyl)-2-oxyindole] | 1 µg/mL (≈ 2.93 µM) | 256 µg/mL (≈ 750 µM) | 0.5 µg/mL (≈ 1.46 µM) | 0.5 µg/mL (≈ 1.46 µM) | 256 µg/mL (≈ 750 µM) | 0.25 µg/mL (≈ 0.732 µM) | 2 µg/mL (≈ 5.86 µM) | 1 µg/mL (≈ 2.93 µM) | 0.5 µg/mL (≈ 1.46 µM) | – |
| CCCCCCCCOCC(O)=C1C(=O)N(C(C)=O)c2ccccc21 [A057, N-acetyl-3-octyloxyacetyl-2-oxyindole] | 0.5 µg/mL (≈ 1.45 µM) | 128 µg/mL (≈ 371 µM) | 2 µg/mL (≈ 5.79 µM) | 1 µg/mL (≈ 2.89 µM) | 128 µg/mL (≈ 371 µM) | 0.25 µg/mL (≈ 0.724 µM) | 8 µg/mL (≈ 23.2 µM) | 16 µg/mL (≈ 46.3 µM) | 1 µg/mL (≈ 2.89 µM) | – |
| CCCCCCCCCC(=O)c1c(O)c2cc(F)ccc2oc1=O [B004, 3-decanoyl-6-fluoro-4-hydroxycoumarin] | 0.25 µg/mL (≈ 0.748 µM) | 2 µg/mL (≈ 5.98 µM) | – | – | 256 µg/mL (≈ 766 µM) | – | 1 µg/mL (≈ 2.99 µM) | – | – | MIC [3]: 0.25 µg/mL (≈ 0.748 µM); MIC [4]: 0.25 µg/mL (≈ 0.748 µM); MIC ([8]; MRSA): 1 µg/mL (≈ 2.99 µM); MIC ([9]; 5038STRAIN): 0.5 µg/mL (≈ 1.5 µM) |
| CCCCCCCCOCC(O)=C1C(=O)N(C(=O)Nc2ccccc2)c2ccccc21 [A058, N-(phenylaminocarbonyl)-3-octyloxyacetyl-2-oxyindole] | < 0.125 µg/mL | 128 µg/mL (≈ 303 µM) | 0.25 µg/mL (≈ 0.592 µM) | 0.5 µg/mL (≈ 1.18 µM) | 128 µg/mL (≈ 303 µM) | < 0.125 µg/mL | 64 µg/mL (≈ 151 µM) | 128 µg/mL (≈ 303 µM) | 0.25 µg/mL (≈ 0.592 µM) | – |
| CCCCCCCCCCCCNC(=O)c1c(O)c2ccccc2oc1=O [B025, 3-(dodecylaminocarbonyl)-4-hydroxycoumarin] | 4 µg/mL (≈ 10.7 µM) | 256 µg/mL (≈ 685 µM) | 1 µg/mL (≈ 2.68 µM) | 2 µg/mL (≈ 5.35 µM) | 256 µg/mL (≈ 685 µM) | 4 µg/mL (≈ 10.7 µM) | 8 µg/mL (≈ 21.4 µM) | 8 µg/mL (≈ 21.4 µM) | 2 µg/mL (≈ 5.35 µM) | – |
| CCCCCCCCCC(=O)c1c(O)c2cc(Cl)ccc2oc1=O [B003, 6-chloro-3-decanoyl-4-hydroxycoumarin] | 0.25 µg/mL (≈ 0.713 µM) | 256 µg/mL (≈ 730 µM) | – | – | 256 µg/mL (≈ 730 µM) | – | 2 µg/mL (≈ 5.7 µM) | – | – | MIC [3]: 0.25 µg/mL (≈ 0.713 µM); MIC [4]: 0.5 µg/mL (≈ 1.43 µM); MIC ([8]; MRSA): 2 µg/mL (≈ 5.7 µM); MIC ([9]; 5038STRAIN): 0.5 µg/mL (≈ 1.43 µM) |
| CCCCCCCCCCOCC(O)=C1C(=O)N(C(=O)OC(C)(C)C)c2cc(Cl)ccc21 [A056, N-Boc-6-chloro-3-decyloxyacetyl-2-oxyindole] | – | – | – | – | – | – | – | – | – | MIC Clostridium perfringens PB6K ([1]; PB6K strain): 0.5 µg/mL (≈ 1.07 µM); MIC Escherichia coli BE1121 [2, 10]: 256 µg/mL (≈ 549 µM); MIC Escherichia coli K12 [5, 13]: 256 µg/mL (≈ 549 µM); MIC Clostridium difficile JCM1296 [6]: 4 µg/mL (≈ 8.58 µM); MIC Straphyrococcus aureus 209P [7, 14]: 256 µg/mL (≈ 549 µM) |
| CCCCCCCCCC(=O)N1C(=O)C(=C(O)c2ccc(F)cc2)c2ccccc21 [A061, N-decanoyl-3-(4-fluorobenzoyl)-2-oxyindole] | 2 µg/mL (≈ 4.88 µM) | – | – | – | – | – | – | – | – | MIC [2]: 128 µg/mL (≈ 313 µM); MIC [3]: 4 µg/mL (≈ 9.77 µM); MIC [4]: 2 µg/mL (≈ 4.88 µM); MIC [5]: 128 µg/mL (≈ 313 µM); MIC ([7]; 209P): 128 µg/mL (≈ 313 µM); MIC ([8]; MRSA): 64 µg/mL (≈ 156 µM); MIC ([9]; 5038STRAIN): 4 µg/mL (≈ 9.77 µM) |
